{"source": "patent US20260007639A1", "about": "“COMPOUNDS FOR THE TREATMENT OF NEUROMUSCULAR DISORDERS” (NMD PHARMA A/S, priority 2017, published 2026)", "key": {"rat soleus muscles [1]": {"system": "rat soleus muscles", "experiment": "Recovery of nerve-stimulated force in isolated rat soleus muscles exposed to sub-maximal tubocurarine (Table 1)", "conditions": "% change in AUC compared to AUC before addition, after 40 min in tubocurarine", "protocol": "The motor nerve was stimulated every 10 min for 2 s with 30 Hz with field stimulation using short duration pulses. […] Traces are shown before addition tubocurarine, after 40 min with tubocurarine, and after 110 min tubocurarine. […] This recovery of force was used in Table 1.\nExperiments were performed using rat soleus muscles from either young (4-wk-old) or adult Wistar rats (12-14-week-old). Animal handling, killing and isolation of muscle is described elsewhere All experiments were performed using normal Krebs-Ringer bicarbonate solution (NKR). In solutions with elevated Mg^2+, MgCl^2 was added to NKR-solution causing minor increases in osmolarity and ionic strength. In solutions with elevated K^+, 4 mM NaCl was replaced by 4 mM KCl in the NKR.\nIn all contraction experiments, isometric force production was determined and force produced during contractions was quantified by measuring the integral of the force response (AUC). Stimulation and force recordings have been described elsewhere. […] In these latter experiments, extracellular recordings of action potentials (M-waves) could be measured without temporal overlap with stimulation artefacts.\nThe aim was to find compounds that by inhibition of CIC-1 channels can recover nerve-stimulated force under conditions of fatigue including conditions where fatigue is caused by compromised neuromuscular transmission. Neuromuscular transmission dysfunction can develop because of both pre- and/or post-synaptic complications in connection with a disorder or as part of neuromuscular blockade during/after surgery. In the initial series of drug testing, experiments were performed with isolated muscles in the presence of sub-maximal ACh receptor antagonist tubocurarine. Since the inclusion of tubocurarine caused a partial loss of neuromuscular transmission this experiment mimics the conditions in myasthenia gravis and neuromuscular blockade. To mimic conditions with pre-synaptic complication (Lambert Eaton syndrome, motor neuron disorder, polyneuropathy) the intact nerve-muscle preparations were incubated at elevated extracellular Mg^2+, which is known to suppress release of ACh from nerve terminals of motor neurons. […]\nFor comparison with the muscle only exposed to tubocurarine (grey trace), the two traces have been overlaid. […] For comparison, muscles only exposed to tubocurarine have been included. The dotted line indicates the recovery of force with C8 when compared to the force production before its addition. This value was used in Table 1 for evaluation of the efficacy of the different compounds in recovering force."}, "rat soleus muscles [2]": {"system": "rat soleus muscles", "experiment": "Recovery of nerve-stimulated force in isolated rat soleus muscles with ACh receptors inhibited by 2 μM rocuronium", "conditions": "50 μM C8 added in the presence of 2 μM rocuronium; 8 muscles; p<0.01", "protocol": "In a separate series of experiments with 8 isolated rat soleus muscles, ACh receptors were inhibited using 2 μM rocuronium, which is a clinically used neuromuscular blocking agent. Under these conditions the nerve-stimulated force was reduced to 51±5% of force before rocuronium. […] This illustrates the potential of these compounds to be used as reversal agents."}, "rat soleus muscles [3]": {"system": "rat soleus muscles", "experiment": "Recovery of nerve-stimulated force in isolated rat soleus muscles exposed to 3.5 mM Mg2+ (Table 2)", "conditions": "rat soleus exposed to 3.5 mM Mg2+, force before addition 38 ± 6 % of control"}, "rat soleus muscles [4]": {"system": "rat soleus muscles", "experiment": "Tubocurarine concentration required to depress nerve-stimulated force by 50% (Kd,tub), combination with neostigmine or pyridostigmine (Table 4)", "conditions": "pre-incubation with 50 μM C8, 10 nM neostigmine or both", "protocol": "Muscles from 4-week-old rats were stimulated to contract by activating the motor nerve with short duration pulses in field stimulation. Muscles contracted every 10 min for 2 s in response to 30 Hz stimulation. Four different experimental conditions were used. […] After this pre-incubation, increasing concentrations of tubocurarine were added to the bath solutions with 60 min (corresponding to six contractions) between each increase in tubocurarine. […] FIG. 5C similar to FIG. 5A but this muscle had been pre-incubated with neostigmine. […] The force integral (AUC) was determined at each tubocurarine concentration. Such AUC determinations were plotted against tubocurarine concentration for each muscle.\nCIC-1 is a novel target in treatment of neuromuscular complications and it was therefore explored whether this approach for symptomatic treatment could be used in combination with existing symptomatic treatment approaches. […] To quantify the effect of compounds on tubocurarine sensitivity, the force at the different tubocurarine concentrations was determined. In plots of nerve-stimulated force against tubocurarine concentration (FIG. 5E) Kd, tub was determined by fitting four parameter sigmoidal functions to the data and the Kd, tub for the different compounds have been collected in Table 4."}, "rat soleus muscle": {"system": "rat soleus muscle", "format": "cell-based", "conditions": "μ-conotoxin GiiiB present"}, "human muscles": {"system": "human muscles", "conditions": "150 μM C8; isolated human muscle"}, "[5]": {"experiment": "Pharmacokinetic analysis of a single I.P. dose of C8 in rats (Table 6)", "format": "in vivo, Sprague-Dawley rats", "conditions": "one-bolus I.P. injection", "protocol": "This part of the study was performed by Pipeline Biotech A/S (Spørring, Denmark). […] Plasma concentrations (free and bound) were determined by OnTarget Chemistry (Uppsala, Sweden, Project No.: PB243-001).\nBefore conducting in vivo experiments with animal models of myasthenia gravis, some pharmacokinetic details were obtained for C8 in response to one-bolus I.P. injection."}, "rats [6]": {"system": "rats", "experiment": "Rotarod running performance of rats after I.P. tubocurarine (myasthenia like phenotype)", "format": "in vivo, rat", "conditions": "C8 20 mg/kg I.P. 2 hrs before tubocurarine 0.13 mg/kg I.P.; tested 21 minutes after tubocurarine", "protocol": "FIG. 9A illustrates the design of the experiments. Prior to Day One the animals had been familiarized to the rotarod in three training sessions distributed over two days.\n(§1) In both series of experiments, running performance was tested on a rotarod using a protocol where the rod was accelerated gradually over a 5 min period, and the running time and covered distance before falling off the rod were measured.\nExperiments with tubocurarine were carried out over two days, and on each day the effect of tubocurarine on running performance was tested. On the first day only tubocurarine was injected. […] On the second day, the animals were first allowed to run on the rotarod, and all animals performed normally. […] The allocation of the animals into the two groups (C8 or sham) was random and unknown to the experimenter (blinded experimental design).\nIn the first series of in vivo experiments, myasthenia gravis was simply mimicked by I.P. injection of tubocurarine (0.13 mg/kg) in animals that had been familiarized to running on the rotarod. On the first of two consecutive days, tubocurarine was injected I.P. and the running performance of the animal was tested 21 minutes after this injection. On the second day of experimentation, the animals first performed a test run to ensure that they were no longer affected by the tubocurarine injected the day before. […]"}, "rats [7]": {"system": "rats", "experiment": "Rotarod running performance in passive myasthenia gravis induced in rats with MAB35 monoclonal antibody", "format": "in vivo, rat", "conditions": "rats with stable reduction in performance after MAB35, versus sham", "protocol": "Prior to I.P. injection of MAB35 the animals had been familiarized to the rotarod over three training sessions distributed over two days. […] After this treatment performance was monitored every second hour. * Indicates significant different as evaluated using student t-test.\nas §1\nIn experiments with MAB35, animals were first familiarized with the rotarod over two consecutive days and then injected I.P. with MAB35. After injection, rotarod performance was then again monitored regularly over the consecutive two days. […] A considerable number of animals, however, became moribund failing to walk and they had altered ventilation (rapid) and pronounced ptosis. These animals were not included in experiments.\nIn the last series of experiments, myasthenia gravis was mimicked in rats by inducing an immunological reaction against the motor endplate of muscle fibers using monoclonal antibody against the nicotinic ACh receptor in muscle fibers. Again the animals had been familiarized to the rotarod before the MAB35 injection. […] From FIG. 10 it can be seen that upon injection sham treatment the performance further declined."}, "rat soleus muscles [8]": {"system": "rat soleus muscles", "experiment": "Mg2+ concentration required to depress nerve-stimulated force by 50% (Kd,Mg2+), combination with 3,4-AP (Table 5)", "conditions": "pre-incubation with 10 μM 3,4-AP", "protocol": "Muscles from 4-week-old rats were stimulated to contract by activating the motor nerve with short duration pulses in field stimulation. Muscles contracted every 10 min for 2 s in response to 30 Hz stimulation. Four different experimental conditions were used. […] FIG. 6C similar to FIG. 6A but this muscle had been pre-incubated with 3,4-AP. […] The force integral (AUC) was determined at each extracellular Mg^2+ concentration. AUC was plotted against Mg^2+ concentration and the data was fitted to a sigmoidal function. This provided the extracellular Mg^2+ concentration that was required to reduce the nerve-stimulated force to 50% (Mg50) under the four different conditions (see Table 4).\nWhile the use of tubocurarine mimics conditions with reduced neuromuscular transmission due to post-synaptic dysfunction (myasthenia gravis, neuromuscular blockade), the experiments with elevated extracellular Mg^2+ mimics conditions with pre-synaptic dysfunction akin to a range of neuromuscular disorders including Lambert Eaton syndrome, motor neuron disorders and polyneuropathy. […] Based on this it was determined whether recovery of nerve-stimulated force at elevated extracellular Mg^2+ with CIC-1 inhibiting compounds could be added to force recovery with 3,4-AP. […] To quantify the effect of compounds on Mg^2+ sensitivity the force at the different Mg^2+ concentrations was determined. […]"}}, "note": "Read-outs that look alike come from different tables or passages of the source."}
{"compound": "C[C@H](Oc1ccc(Br)cc1)C(=O)O", "note": "[Compound C8, (2S)-2-(4-bromophenoxy)propanoic acid]", "values": [{"measurement": "50 μM % change after addition (AUC force)", "setting": "rat soleus muscles [1]; 50 μM compound", "value": 16, "unit": "%"}, {"measurement": "150 μM % change after addition (AUC force)", "setting": "rat soleus muscles [1]; 150 μM compound", "value": 23, "unit": "%"}, {"measurement": "nerve-stimulated contractile force, % of force before rocuronium", "setting": "rat soleus muscles [2]", "value": "81±4", "unit": "%"}, {"measurement": "50 μM % change after addition (AUC force)", "setting": "rat soleus muscles [3]; 50 μM compound", "value": "13 ± 4", "unit": "%"}, {"measurement": "100 μM % change after addition (AUC force)", "setting": "rat soleus muscles [3]; 100 μM compound", "value": "26 ± 5", "unit": "%"}, {"measurement": "nerve-stimulated force at different tubocurarine concentrations compared to control", "setting": "rat soleus muscles [4]", "value": "elevated nerve-stimulated force"}, {"measurement": "EPP amplitude compared to control conditions", "setting": "rat soleus muscle; 10 μM C8", "value": "significantly larger EPPs"}, {"measurement": "EPP amplitude compared to control conditions", "setting": "rat soleus muscle; 25 μM C8", "value": "significantly larger EPPs"}, {"measurement": "contractile force at elevated K+ and TTX", "setting": "human muscles", "value": "markedly recovery"}, {"measurement": "AUC 0-inf_obs", "setting": "[5]", "value": 205.381, "unit": "µg·h/mL"}, {"measurement": "AUC 0-t", "setting": "[5]", "value": 203.635, "unit": "µg·h/mL"}, {"measurement": "C0", "setting": "[5]", "value": 24.533, "unit": "µg/mL"}, {"measurement": "CI_obs", "setting": "[5]", "value": 48.69, "unit": "mL/h"}, {"measurement": "Cmax", "setting": "[5]", "value": 44.6, "unit": "µg/mL"}, {"measurement": "Tmax", "setting": "[5]", "value": 0.5, "unit": "h"}, {"measurement": "VD_obs", "setting": "[5]", "value": 259.62, "unit": "mL"}, {"measurement": "t1/2", "setting": "[5]", "value": 3.70, "unit": "h"}, {"measurement": "increase in running performance (distance on rotarod) on the second day compared to the first day", "setting": "rats [6]", "value": "around 150%"}, {"measurement": "rotarod running performance after treatment", "setting": "rats [7]; C8 20 mg/kg", "value": "decline was reduced"}, {"measurement": "rotarod running performance after treatment", "setting": "rats [7]; C8 30 mg/kg", "value": "clear recovery of performance"}]}
{"compound": "CN(C)C(=O)Oc1cccc([N+](C)(C)C)c1", "note": "[neostigmine, reference compound]", "values": [{"measurement": "nerve-stimulated force at different tubocurarine concentrations compared to control", "setting": "rat soleus muscles [4]", "value": "elevated nerve-stimulated force"}]}
{"compound": "Nc1ccncc1N", "note": "[3,4-AP, 3,4-diaminopyridine]", "values": [{"measurement": "nerve-stimulated force at elevated Mg2+ compared to control", "setting": "rat soleus muscles [8]", "value": "remain elevated"}]}
